From US20250129103A1, “METHODS FOR TREATMENT OF CANCER” (Frontier Medicines Corporation, priority 2022, published 2025) come the findings set out here.

Converted amounts (≈) assume the structure as drawn.

A word on the IC50: it is the point on the concentration scale where inhibition reaches its midpoint.

Data set [1] is described as follows: Determination of kinetic solubility (pH 7.4). Type of data set: physicochemical. The note with it: for solubility kinetic at 2 h: phosphate buffer, pH 7.4, aqueous buffer, kinetic from dmso stock, 50 mM phosphate buffer pH 7.4, read-out: Ksol, pH 7.4. As to the method:
490 μL of a 50 mM phosphate buffer (pH 7.4) was added to the sample solution. The mixture was vortexed for at least 2 minutes. The vial was shaken on a Barnstead shaker at 800 rpm at room temperature for 2 hours. The vial was centrifuged at 4000 rpm for 20 minutes. The Mini-UniPrep vial was compressed to prepare a filtrate, which was injected into an HPLC-UV and LC-MS/MS system. Kinetic solubility was calculated by referencing sample peak areas to a standard calibration curve.

Data set [2] is described as follows: Determination of logD (1-octanol / phosphate buffer pH 7.4). Type of data set: physicochemical. The note with it: for logD: 1-octanol/phosphate buffer, pH 7.4, pH 7.4, 1-octanol/phosphate buffer, read-out: Log D, pH 7.4. As to the method:
Preparation of phosphate buffer saturated with 1-octanol: 10 mL of 100 mM phosphate buffer (pH 7.4) was added to 100 mL of 1-octanol. The mixture was shaken vigorously and left to stand at room temperature overnight.
Preparation of 1-octanol saturated with phosphate buffer: 10 mL of 1-octanol was added to 100 mL of 100 mM phosphate buffer (pH 7.4). The mixture was shaken vigorously and left to stand at room temperature overnight.
149 μL of phosphate buffer saturated with 1-octanol was added into 1st sample tube. 149 μL of 1-octanol saturated with phosphate buffer was added into the 2nd sample tube. The sample tubes were mixed vigorously and shaken for 1 hour at a speed of 800 rpm at room temperature. The sample tubes were subjected to centrifugation at 4000 rpm for 5 minutes at room temperature. Samples of the supernatant were taken from both tubes, diluted with an appropriate LCMS buffer, and analyzed on an LCMS instrument. LogD was calculated according to the following equation.

Data set [3] concerns the target KRAS G12C (GMPPNP-loaded) and cRAF (Ras-binding domain) interaction (Homo sapiens (Human), UniProt P01116, C118S/C51S/C80L/G12C). The data set can be described thus: Inhibition of KRAS G12C and cRAF binding (AlphaScreen). As to conditions: KRAS G12C loaded with GMPPNP, cRaf RBD, 2 hours preincubation; read-out: Raf-1 RBD K-Ras IC50. Summed up:
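GMPPNP-loaded KRAS G12C in 25 mM Hepes pH 7.4, 150 mM NaCl, 5 mM MgCl2, 0.01% Triton X-100, 10 μM GMPPNP, 2% DMSO, preincubated with compound 2 h at room temperature. cRAF RBD plus AlphaScreen beads then added for 60-90 min; signal read at 570 nm.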
In general terms: Bead proximity is the source of the signal in Alpha formats.

KRAS G12C (GMPPNP-loaded) and cRAF (Ras-binding domain) interaction, sequence (P01116 other isoform, or with tags, fused parts or gaps G12C/C51S/C80L/C118S): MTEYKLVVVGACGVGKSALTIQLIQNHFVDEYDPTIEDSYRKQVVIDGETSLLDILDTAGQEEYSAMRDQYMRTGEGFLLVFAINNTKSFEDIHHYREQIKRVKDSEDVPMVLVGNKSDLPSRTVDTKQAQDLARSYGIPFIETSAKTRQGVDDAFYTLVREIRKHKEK

As for `Cc1noc(/C=C/C(=O)N2CCN(c3nc(OCC45CCCN4CCC5)nc4c3CCN(c3cccc5cccc(Cl)c35)C4)C[C@@H]2CC#N)n1` [Compound 32], in data set [1] (50 mM phosphate buffer pH 7.4), the “Ksol, pH 7.4 (ug/mL)” value worked out at 79.78 ug/mL. In data set [2] (pH 7.4, 1-octanol/phosphate buffer), the “Log D, pH 7.4” value is recorded as 3.62. In addition, the IC50 in data set [3] is 10 to 100 nM.

`CC(C)(C)c1noc(/C=C/C(=O)N2CCN(c3nc(OCC45CCCN4CCC5)nc4c(F)c(-c5cccc6cccc(Cl)c56)ncc34)C[C@@H]2CC#N)n1` [Compound 33]: in data set [1], the solubility kinetic at 2 h was determined as 50 µg/mL (≈ 66.7 µM). Besides, in data set [2], the logD worked out at 3.73. Also, in data set [3], the IC50 is 100 to 500 nM.

Take `CC(C)(C)c1noc(/C=C/C(=O)N2CCN(c3nc(OC[C@@]45CCCN4C[C@H](F)C5)nc4c(F)c(-c5cccc6cccc(Cl)c56)ncc34)C[C@@H]2CC#N)n1` [Compound 34]: in data set [1], the solubility kinetic at 2 h stood at 0.01 µg/mL (≈ 0.013 µM). The logD in data set [2] came to 5.11. Besides, the IC50 in data set [3] is 100 to 500 nM.

As to `N#CC[C@H]1CN(c2nc(OCC34CCCN3CCC4)nc3c2CCN(c2cccc4cccc(Cl)c24)C3)CCN1C(=O)/C=C/c1ncccn1` [Compound 35], in data set [1], the solubility kinetic at 2 h was 111 µg/mL (≈ 161 µM). Moreover, the logD in data set [2] stood at 2.77. The IC50 in data set [3] fell in the range of 100 to 500 nM.

As to `N#CC[C@H]1CN(c2nc(OCC34CCCN3CCC4)nc3c2CCN(c2cccc4cccc(Cl)c24)C3)CCN1C(=O)/C=C/c1nc([C@H]2C[C@@H]2F)no1` [Compound 36], the solubility kinetic at 2 h in data set [1] was 2.62 µg/mL (≈ 3.55 µM). Also, the logD in data set [2] worked out at 3.98. Further, the half-maximal inhibitory concentration (IC50) in data set [3] was 10 to 100 nM.

With `N#CC[C@H]1CN(c2nc(OC[C@@]34CCCN3C[C@H](F)C4)nc3c2CCN(c2cccc4cccc(Cl)c24)C3)CCN1C(=O)/C=C/c1nc([C@H]2C[C@@H]2F)no1` [Compound 37], in data set [1], the solubility kinetic at 2 h was determined as 0.01 µg/mL (≈ 0.0132 µM). In addition, the logD in data set [2] was 4.85. Also, the IC50 in data set [3] was 10 to 100 nM.

In the case of `N#CC[C@H]1CN(c2nc(OCC34CCCN3CCC4)nc3c(F)c(-c4cccc5cccc(Cl)c45)ncc23)CCN1C(=O)/C=C/c1nc([C@H]2C[C@@H]2F)no1` [Compound 38], the solubility kinetic at 2 h in data set [1] was 53.9 µg/mL (≈ 71.7 µM). In addition, in data set [2], the logD was found to be 2.91. Moreover, the IC50 in data set [3] was in the range of 100 to 500 nM.

Take `CC1(c2noc(/C=C/C(=O)N3CCN(c4nc(OC[C@@]56CCCN5C[C@H](F)C6)nc5c(F)c(-c6cccc7cccc(Cl)c67)ncc45)C[C@@H]3CC#N)n2)CC1` [Compound 47]: in data set [1], the solubility kinetic at 2 h is 0.01 µg/mL (≈ 0.0131 µM). In addition, in data set [2], the logD is 4.59. Besides, the IC50 in data set [3] lay within 100 to 500 nM.

With `N#CC[C@H]1CN(c2nc(OC[C@@]34CCCN3C[C@H](F)C4)nc3c(F)c(-c4nc(N)cc5cccc(F)c45)ncc23)CCN1C(=O)/C=C/CN1CCOCC1` [Compound 60], the solubility kinetic at 2 h in data set [1] was found to be 94.8 µg/mL (≈ 128 µM). The logD in data set [2] worked out at 1.08. Besides, the IC50 in data set [3] was under 10 nM.

Take `N#CC[C@H]1CN(c2nc(OCC34CCCN3CCC4)nc3c2CCN(c2ccccc2C(F)F)C3)CCN1C(=O)/C=C/CN1CCOCC1` [Compound 61]: the solubility kinetic at 2 h in data set [1] was 88.7 µg/mL (≈ 131 µM). Besides, the logD in data set [2] came to 1.22. For the same compound, the IC50 in data set [3] was over 500 nM.

With `N#CC[C@H]1CN(c2nc(OCC34CCCN3CCC4)nc3c2CCN(c2cccc4cccc(Cl)c24)C3)CCN1C(=O)/C=C/CN1C[C@@H]2C[C@H]1CO2` [Compound 62], the solubility kinetic at 2 h in data set [1] came out at 95.1 µg/mL (≈ 131 µM). The logD in data set [2] worked out at 2.06. Moreover, the IC50 in data set [3] was under 10 nM.

On to `CCc1c(F)ccc2cccc(-c3ncc4c(N5CCN(C(=O)/C=C/CN6[C@@H]7CC[C@H]6COC7)[C@@H](CC#N)C5)nc(OC[C@@]56CCCN5C[C@H](F)C6)nc4c3F)c12` [Compound 99, 2-((S)-1-((E)-4-((1R,5S)-3-oxa-8-azabicyclo[3.2.1]octan-8-yl)but-2-enoyl)-4-(7-(8-ethyl-7-fluoronaphthalen-1-yl)-8-fluoro-2-(((2R,7aS)-2-fluorotetrahydro-1H-pyrrolizin-7a(5H)-yl)methoxy)pyrido[4,3-d]pyrimidin-4-yl)piperazin-2-yl)acetonitrile], for which the solubility kinetic at 2 h in data set [1] came to 78 µg/mL (≈ 99.8 µM). The logD in data set [2] was determined as 3.4. For the same compound, the IC50 in data set [3] is under 10 nM.

For `Cc1cc(/C=C/C(=O)N2CCN(c3nc(OC[C@@]45CCCN4C[C@H](F)C5)nc4c(F)c(-c5cccc6ccc(F)c(C)c56)ncc34)C[C@@H]2CC#N)nc(C)n1` [Compound 105, 2-((S)-1-((E)-3-(2,6-dimethylpyrimidin-4-yl)acryloyl)-4-(8-fluoro-7-(7-fluoro-8-methylnaphthalen-1-yl)-2-(((2R,7aS)-2-fluorotetrahydro-1H-pyrrolizin-7a(5H)-yl)methoxy)pyrido[4,3-d]pyrimidin-4-yl)piperazin-2-yl)acetonitrile], the solubility kinetic at 2 h in data set [1] was 2.36 µg/mL (≈ 3.16 µM). Further, in data set [2], the logD turned out to be 3.99. In addition, in data set [3], the IC50 was under 10 nM.

Consider `C#Cc1c(F)ccc2cccc(-c3ncc4c(N5CCN(C(=O)/C=C/CN6[C@@H]7CC[C@H]6COC7)[C@@H](CC#N)C5)nc(OC[C@@]56CCCN5C[C@H](F)C6)nc4c3F)c12` [Compound 107, 2-((S)-1-((E)-4-((1R,5S)-3-oxa-8-azabicyclo[3.2.1]octan-8-yl)but-2-enoyl)-4-(7-(8-ethynyl-7-fluoronaphthalen-1-yl)-8-fluoro-2-(((2R,7aS)-2-fluorotetrahydro-1H-pyrrolizin-7a(5H)-yl)methoxy)pyrido[4,3-d]pyrimidin-4-yl)piperazin-2-yl)acetonitrile], for which the solubility kinetic at 2 h in data set [1] amounted to 132 µg/mL (≈ 170 µM). The logD in data set [2] stood at 2.93. In data set [3], the IC50 was under 10 nM.

As for `N#CC[C@H]1CN(c2nc(OC[C@@]34CCCN3C[C@H](F)C4)nc3c(F)c(-c4cccc5cccc(Cl)c45)ncc23)CCN1C(=O)/C=C/CN1CC2CCC1CO2` (stereo partly drawn) [Compound 108, 2-((2S)-1-((E)-4-(2-oxa-5-azabicyclo[2.2.2]octan-5-yl)but-2-enoyl)-4-(7-(8-chloronaphthalen-1-yl)-8-fluoro-2-(((2R,7aS)-2-fluorohexahydro-1H-pyrrolizin-7a-yl)methoxy)pyrido[4,3-d]pyrimidin-4-yl)piperazin-2-yl)acetonitrile], the solubility kinetic at 2 h in data set [1] worked out at 88 µg/mL (≈ 114 µM). Further, the logD in data set [2] was 3. In addition, in data set [3], the IC50 was under 10 nM.

Take `N#CC[C@H]1CN(c2nc(OC[C@@]34CCCN3C[C@H](F)C4)nc3c(F)c(-c4cccc5cccc(Cl)c45)ncc23)CCN1C(=O)/C=C/CN1CCCOCC1` [Compound 109, 2-((S)-1-((E)-4-(1,4-oxazepan-4-yl)but-2-enoyl)-4-(7-(8-chloronaphthalen-1-yl)-8-fluoro-2-(((2R,7aS)-2-fluorohexahydro-1H-pyrrolizin-7a-yl)methoxy)pyrido[4,3-d]pyrimidin-4-yl)piperazin-2-yl)acetonitrile]: the solubility kinetic at 2 h in data set [1] is 127 µg/mL (≈ 167 µM). Moreover, in data set [2], the logD came to 2.6. The IC50 in data set [3] is under 10 nM.

In the case of `N#CC[C@H]1CN(c2nc(OC[C@@]34CCCN3C[C@H](F)C4)nc3c(F)c(-c4cccc5ccc(F)c(F)c45)ncc23)CCN1C(=O)/C=C/CN1CCCOCC1` [Compound 110, 2-((S)-1-((E)-4-(1,4-oxazepan-4-yl)but-2-enoyl)-4-(7-(7,8-difluoronaphthalen-1-yl)-8-fluoro-2-(((2R,7aS)-2-fluorotetrahydro-1H-pyrrolizin-7a(5H)-yl)methoxy)pyrido[4,3-d]pyrimidin-4-yl)piperazin-2-yl)acetonitrile], the solubility kinetic at 2 h in data set [1] was 78.6 µg/mL (≈ 104 µM). Further, the logD in data set [2] amounted to 2.9. In addition, the IC50 in data set [3] was under 10 nM.

Turning to `N#CC[C@H]1CN(c2nc(OC[C@@]34CCCN3C[C@H](F)C4)nc3c(F)c(-c4cccc(Cl)c4C4CC4)ncc23)CCN1C(=O)/C=C/CN1CCCOCC1` [Compound 112, 2-((S)-1-((E)-4-(1,4-oxazepan-4-yl)but-2-enoyl)-4-(7-(3-chloro-2-cyclopropylphenyl)-8-fluoro-2-(((2R,7aS)-2-fluorotetrahydro-1H-pyrrolizin-7a(5H)-yl)methoxy)pyrido[4,3-d]pyrimidin-4-yl)piperazin-2-yl)acetonitrile], the solubility kinetic at 2 h in data set [1] came to 52.4 µg/mL (≈ 70.1 µM). The logD in data set [2] was 3.28. Also, the IC50 in data set [3] was under 10 nM.

For `CN(C)C/C=C/C(=O)N1CCN(c2nc(OC[C@@]34CCCN3C[C@H](F)C4)nc3c(F)c(-c4cccc(Cl)c4C(F)(F)F)ncc23)C[C@@H]1CC#N` [Compound 114, 2-((S)-4-(7-(3-chloro-2-(trifluoromethyl)phenyl)-8-fluoro-2-(((2R,7aS)-2-fluorotetrahydro-1H-pyrrolizin-7a(5H)-yl)methoxy)pyrido[4,3-d]pyrimidin-4-yl)-1-((E)-4-(dimethylamino)but-2-enoyl)piperazin-2-yl)acetonitrile], the solubility kinetic at 2 h in data set [1] was determined as 121 µg/mL (≈ 168 µM). Further, in data set [2], the logD worked out at 2.35. The IC50 in data set [3] was under 10 nM.
